Key:
Assay in all cases: relative viability (nuclei count vs DMSO), 5 days (fraction); higher = more cells survive
4EGI-1 + Pictilisib = compound: O=C(O)C(Cc1ccccc1[N+](=O)[O-])=NNc1nc(-c2ccc(Cl)c(Cl)c2)cs1 (mixture of isomers) [4EGI-1] + CS(=O)(=O)N1CCN(Cc2cc3nc(-c4cccc5[nH]ncc45)nc(N4CCOCC4)c3s2)CC1 [Pictilisib] (partner 1 µM)
Procedure, shortened: (§1)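 Cells from lung cancer lines were seeded into 1536-well plates and, one day later, dosed by pin tool. Treatments were either a single drug or a fixed dose of an anchor drug with five library-drug doses (not always all listed) in √10 steps. After 5 days, nuclei were stained in a one-step fixation (final 0.05% Triton X-100, 1% formaldehyde, 1 ug/ml Hoechst) and counted on 4× images, and relative viability is the treated-to-vehicle nuclei ratio, as the median of duplicate plates.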

XMD8-85 + Alpelisib = compound: CN1CCN(CC1)C2=CC(=C(C=C2)NC3=NC=C4C(=N3)N(C5=CC=CC=C5C(=O)N4C)C)OC [XMD8-85] + Cc1nc(NC(=O)N2CCC[C@H]2C(N)=O)sc1-c1ccnc(C(C)(C)C(F)(F)F)c1 [Alpelisib] (partner 2 µM)
Procedure, shortened: as §1

XMD8-85 + Palbociclib = compound: CN1CCN(CC1)C2=CC(=C(C=C2)NC3=NC=C4C(=N3)N(C5=CC=CC=C5C(=O)N4C)C)OC [XMD8-85] + CC(=O)c1c(C)c2cnc(Nc3ccc(N4CCNCC4)cn3)nc2n(C2CCCC2)c1=O [Palbociclib] (partner 0.5 µM)
Procedure, shortened: as §1

4EGI-1 + Pemetrexed = compound: O=C(O)C(Cc1ccccc1[N+](=O)[O-])=NNc1nc(-c2ccc(Cl)c(Cl)c2)cs1 (mixture of isomers) [4EGI-1] + Nc1nc2[nH]cc(CCc3ccc(C(=O)N[C@@H](CCC(=O)O)C(=O)O)cc3)c2c(=O)[nH]1 [Pemetrexed] (partner 0.2 µM)
Procedure, shortened: as §1

Row | Cell Line | relative viability (4EGI-1 + Pictilisib; first compound 0.5 µM) | relative viability (4EGI-1 + Pictilisib; first compound 1.581 µM) | relative viability (4EGI-1 + Pictilisib; first compound 5 µM) | relative viability (4EGI-1 + Pictilisib; first compound 15.81 µM) | relative viability (4EGI-1 + Pictilisib; first compound 50 µM) | relative viability (XMD8-85 + Alpelisib; first compound 0.08 µM) | relative viability (XMD8-85 + Alpelisib; first compound 0.253 µM) | relative viability (XMD8-85 + Alpelisib; first compound 0.8 µM) | relative viability (XMD8-85 + Alpelisib; first compound 2.53 µM) | relative viability (XMD8-85 + Alpelisib; first compound 8 µM) | relative viability (XMD8-85 + Palbociclib; first compound 0.08 µM) | relative viability (XMD8-85 + Palbociclib; first compound 0.253 µM) | relative viability (XMD8-85 + Palbociclib; first compound 0.8 µM) | relative viability (XMD8-85 + Palbociclib; first compound 2.53 µM) | relative viability (XMD8-85 + Palbociclib; first compound 8 µM) | relative viability (4EGI-1 + Pemetrexed; first compound 0.5 µM) | relative viability (4EGI-1 + Pemetrexed; first compound 1.581 µM) | relative viability (4EGI-1 + Pemetrexed; first compound 5 µM) | relative viability (4EGI-1 + Pemetrexed; first compound 15.81 µM) | relative viability (4EGI-1 + Pemetrexed; first compound 50 µM)
1 | NCI-H1651 | 0.627 | 0.632 | 0.576 | 0.508 | 0.21 | 0.948 | 0.951 | 1.04 | 0.954 | 0.548 | 0.517 | 0.534 | 0.475 | 0.468 | 0.405 | 0.599 | 0.576 | 0.636 | 0.52 | 0.412
2 | SK-LU-1 | 0.628 | 0.648 | 0.618 | 0.541 | 0.416 | 0.924 | 1.07 | 1.08 | 1.01 | 0.855 | 0.358 | 0.364 | 0.392 | 0.356 | 0.385 | 0.932 | 1.02 | 0.992 | 1.06 | 0.319
3 | NCI-H2405 | 0.471 | 0.355 | 0.547 | 0.571 | 0.518 | 0.812 | 0.818 | 0.833 | 0.539 | 0.568 | 0.527 |  | 0.543 | 0.528 | 0.509 | 1.1 |  | 1.3 | 1.05 | 0.285
4 | HCC-15 | 0.921 | 0.705 | 0.755 | 0.728 | 0.574 | 0.934 | 0.851 | 0.997 | 0.894 | 0.661 | 0.728 | 0.705 | 0.751 | 0.708 | 0.619 | 0.231 | 0.22 | 0.204 | 0.198 | 0.212
5 | COR-L23 | 0.96 | 0.549 | 0.827 | 0.491 | 0.135 | 0.882 | 0.887 | 0.742 | 0.712 | 0.506 | 0.269 | 0.234 | 0.269 | 0.294 | 0.238 | 0.223 | 0.189 | 0.194 | 0.204 | 0.215
6 | PC-3 [JPC-3] | 0.772 | 0.826 | 0.706 |  | 0.458 | 1.02 | 1.05 | 1.06 | 1.01 | 1.01 | 0.489 | 0.539 | 0.551 | 0.583 | 0.564 | 1.09 |  | 1.21 | 0.491 | 0.333
7 | A-427 | 0.855 | 0.409 | 0.705 | 0.589 | 0.364 | 1.09 | 1.13 | 1.1 | 1.11 | 1 | 0.521 | 0.544 | 0.571 | 0.52 | 0.463 | 0.982 |  | 0.99 | 0.838 | 0.228
8 | NCI-H1755 | 0.604 | 0.477 | 0.459 | 0.398 | 0.235 | 0.981 | 0.949 | 0.954 | 1.04 | 0.896 | 0.47 | 0.445 | 0.432 | 0.449 | 0.393 | 0.424 | 0.428 | 0.417 | 0.561 | 0.351
9 | NCI-H2347 | 0.469 | 0.488 | 0.579 | 0.738 | 0.361 | 1.03 | 1.06 | 1.03 | 1 | 0.801 | 0.523 | 0.457 | 0.395 | 0.456 | 0.352 | 0.438 | 0.407 | 0.452 | 0.414 | 0.413
10 | NCI-H2170 | 0.316 | 0.306 | 0.319 | 0.253 | 0.22 | 0.759 | 0.812 |  | 0.816 | 0.495 | 0.38 | 0.374 | 0.436 | 0.383 | 0.332 | 0.259 | 0.256 | 0.247 | 0.256 | 0.265
11 | LXF-289 | 0.846 | 0.731 | 0.793 | 0.745 | 0.516 | 1.02 | 0.964 | 1.01 | 1.08 | 0.939 | 0.581 | 0.615 | 0.561 | 0.658 | 0.54 | 0.874 | 0.909 | 0.941 | 0.804 | 0.605
12 | NCI-H1666 | 0.38 | 0.343 | 0.524 | 0.376 | 0.266 | 1.01 | 0.829 | 0.9 | 1.05 | 0.74 | 0.679 | 0.656 | 0.606 | 0.632 | 0.645 | 0.898 | 0.889 | 0.891 | 0.711 | 0.641
13 | HCC-78 | 0.206 | 0.257 | 0.153 | 0.191 | 0.234 | 0.384 | 0.405 | 0.39 | 0.3 | 0.285 | 0.544 | 0.459 | 0.564 | 0.503 | 0.435 | 0.911 |  | 0.916 | 0.892 | 0.972
14 | NCI-H2126 | 0.525 | 0.455 | 0.581 | 0.445 | 0.42 | 0.628 | 0.767 | 0.814 | 0.776 | 0.724 | 0.415 | 0.394 | 0.378 | 0.32 | 0.387 | 0.793 | 0.712 | 0.681 | 0.596 | 0.537
15 | NCI-H1993 | 0.919 | 0.761 | 0.781 | 0.736 | 0.862 | 0.707 |  | 0.78 | 0.561 | 0.656 | 0.564 | 0.595 | 0.612 | 0.692 | 0.61 | 0.529 | 0.569 | 0.541 | 0.518 | 0.481
16 | LOU-NH91 | 0.532 |  | 0.539 | 0.478 | 0.484 | 0.681 | 0.758 | 0.726 | 0.711 | 0.616 | 0.536 | 0.496 | 0.503 | 0.534 | 0.514 | 0.431 |  | 0.387 | 0.435 | 0.481

From the supplement of paper PMC10307832
